Assays:
histidine decarboxylase = test: Histidine decarboxylase activity of guinea-pig kidneys after in vivo administration; conditions: for Activity expressed in % inhibition of the enzyme: guinea-pig renal enzyme, sacrificed five hours after administration, vs control animals
Excerpt: The activity of the compound 458 L was compared with that of tritoqualine, which is, to the Applicants' knowledge, the only product used therapeutically for this objective. The technique for measuring the histadine decarboxylase activity of guinea-pig kidneys has been described by B. Kosmicki et al (J. Pharmacol. Paris 1974-5-3-331-342). The guinea-pigs were sacrificed five hours after administering the substances under investigation. The percentage reduction in the activity of the renal enzyme of the treated animals was determined with respect to control animals.

[1] = Acute toxicity (LD 50), oral route, mice; conditions: mouse, in vivo
Description: (§1) The toxicity was determined in the conventional manner.

mice = conditions: mouse, in vivo
Description: as §1

Row | Structure (SMILES) | Activity expressed in % inhibition of the enzyme (histidine decarboxylase; dosage 10 mg/kg) [%] | Activity expressed in % inhibition of the enzyme (histidine decarboxylase; dosage 20 mg/kg) [%] | Activity expressed in % inhibition of the enzyme (histidine decarboxylase; dosage 40 mg/kg) [%] | Activity expressed in % inhibition of the enzyme (histidine decarboxylase; dosage 60 mg/kg) [%] | in vivo inhibition of histidine decarboxylase (in words) (histidine decarboxylase; in vivo) | LD50 [1] [mg/kg] | chronic toxicity (tolerance) (mice)
1 | CCOc1c(N)c2c(c(OCC)c1OCC)C(C1c3c(cc(OC)c(OC)c3OC)CCN1C)OC2=O (centres unmarked) [458 L, 2-methyl-6,7,8-trimethoxy-1[4,5,6-triethoxy-7-amino-3-phthalidyl]-1,2,3,4-tetrahydro-isoquinoline] | 14 | 21 | 31 | 41 | inhibiting in vivo the action of the enzyme histidine decarboxylase | ~6000 | well tolerated
2 | CCOc1c(N)c2c(c(OCC)c1OCC)C(C1c3c(cc4c(c3OC)OCO4)CCN1C)OC2=O (centres unmarked) [Tritoqualine, tritoqualine, reference compound] | 10 | 20 | 20 | 22 |  |  | 
